We go through two compounds from paper PMC7998669, “7-(2-Anilinopyrimidin-4-yl)-1-benzazepin-2-ones Designed by a “Cut and Glue” Strategy Are Dual Aurora A/VEGF-R Kinase Inhibitors” (Molecules, 2021).

Broadly, the GI50 is the concentration giving 50% growth inhibition.

Common to all, as to test: NCI cancer cell line screen (sulforhodamin B)
Holding throughout (type): cell-based

One experiment has as its system NCI/ADR-RES. As to conditions: Homo sapiens, Ovarian, 48 h, read-out: log10 GI50 (converted). As for the experimental part: (§1) The new dual Aurora A/VEGF-R inhibitors 2e and 2n were selected by the National Cancer Institute for screening in its broad cancer cell line panel. The NCI in vitro assay is performed by incubation of cells with test compounds for 48 h and subsequent cell fixation with trichloroacetic acid. The pink dye sulforhodamin B is added, which binds to the proteins of the fixed cells. After washing and solubilizing the bound stain, the optical density is measured spectrophotometrically to determine the relative proliferation of treated and untreated cells.
(§2) Simultaneous inhibition of the Aurora A kinase and the VEGF-R2/3 receptor kinases may represent an interesting dual activity for the treatment of cancer. The National Cancer Institute selected the compounds 2e and 2n as representatives with particularly high inhibitory activity on the above kinases for testing in the IVCLS (in vitro cell line screening). In this screening, compounds are tested for antiproliferative activity on about 60 in vitro cultivated tumor cell lines. Based on this very broad screening on cell lines from nine tumor entities the general antiproliferative potency of compounds is determined. In addition, the bioinformatic tool COMPARE allowed one to draw conclusions on the molecular target of the compounds from the activity patterns on the different cell lines. Similar molecular mechanisms of action of two compounds are assumed if a Pearson correlation coefficient (PCC) of > 0.6 is calculated by COMPARE [52, 53]. […] The selectivity profile of the two compounds is not very pronounced given the overall very similar proliferation inhibition values across all cell lines. A COMPARE analysis determined a PCC = 0.61 for the patterns of test compounds 2e and 2n, which is consistent with an analogous mechanism of action. However, whether this mechanism is actually based on the inhibition of the inhibited Aurora kinases and VEGF receptor kinases cannot be deduced from these profiles.

The next experiment has as its system SF-539. As to conditions: Homo sapiens; SF-539, CNS; 48 h; read-out: log10 GI50 (converted). As for the experimental part:
as §1, §2

In another experiment the test system is SF-268. The note with it: Homo sapiens; SF-268, CNS; 48 h; read-out: log10 GI50 (converted). The procedure: as §1, §2
The test system of another experiment is SW-620. The note with it: Homo sapiens; SW-620, Colon; 48 h; read-out: log10 GI50 (converted). As for the experimental part:
as §1, §2

For a further experiment, the system named is TK-10. As to conditions: Homo sapiens; TK-10, Renal; 48 h; read-out: log10 GI50 (converted). The procedure:
as §1, §2

In the next experiment the test system is OVCAR-8. The note with it: Homo sapiens; OVCAR-8, Ovarian; 48 h; read-out: log10 GI50 (converted). As for the experimental part:
as §1, §2

Another experiment relates to MALME-3M. As to conditions: Homo sapiens, Melanoma, 48 h, read-out: log10 GI50 (converted). The procedure:
as §1, §2

The next experiment relates to ACHN. The note with it: Homo sapiens, Renal, 48 h, read-out: log10 GI50 (converted). The procedure:
as §1, §2

The next experiment deals with MDA-MB-435. The note with it: Homo sapiens; MDA-MB-435, Melanoma; 48 h; read-out: log10 GI50 (converted). As for the experimental part:
as §1, §2

`O=C1CCCc2cc(-c3ccnc(Nc4ccc(O)cc4)n3)ccc2N1` [Compound 2e, 7-[2-(4-Hydroxyanilino)pyrimidin-4-yl]-1,3,4,5-tetrahydro-2H-1-benzazepin-2-one]: the GI50 in the experiment with NCI/ADR-RES was > 100 µM; in the experiment on SF-539 it was 4.17 µM; in the experiment on SF-268, 4.37 µM; with SW-620, 4.79 µM; in the experiment on TK-10 it was 3.8 µM; in the experiment on OVCAR-8, 4.07 µM. Moreover, the GI50 is 2190 nM in the experiment on MALME-3M, 2.57 µM with ACHN and 3.63 µM in the experiment on MDA-MB-435.

For `COc1ccc(Nc2nccc(-c3ccc4c(c3)CCCC(=O)N4)n2)cc1O` [Compound 2n, 7-[2-(3-Hydroxy-4-methoxyanilino)pyrimidin-4-yl]-1,3,4,5-tetrahydro-2H-1-benzazepin-2-one], the GI50 was 14.1 µM in the experiment on NCI/ADR-RES; 4.47 µM in the experiment with SF-539; 7.41 µM in the experiment with SF-268; 4.47 µM with SW-620; 23.4 µM with TK-10; 9.77 µM in the experiment with OVCAR-8. For the same compound, the concentration for 50% growth inhibition (GI50) with MALME-3M was > 100000 nM; with ACHN it was 4.17 µM; in the experiment on MDA-MB-435 it was 5.25 µM.
